“And” between values parts separate entries of the source, which are not always exact repeats. Equal entries are not always repeated.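 Tested at 5 concentrations; 48 h exposure; 96-well plates; endpoints linearly interpolated, else capped at highest concentration. The concentration for 50% growth inhibition is given as GI50. TGI: total growth inhibition.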
Legend:
Assay in all cases: NCI anticancer screen, dose series, 48 h
NCI-H460 lung = test system: NCI-H460 lung
MOLT-4 leukemia = test system: MOLT-4 leukemia
ACHN renal = test system: ACHN renal
SNB-75 CNS = test system: SNB-75 CNS
HOP-62 NSCLC = test system: HOP-62 NSCLC
LOX IMVI melanoma = test system: LOX IMVI melanoma
SN12C renal = test system: SN12C renal
U251 CNS = test system: U251 CNS
MCF7 breast = test system: MCF7 breast
NCI/ADR-RES ovarian = test system: NCI/ADR-RES ovarian

Structure (SMILES) | TGI (NCI-H460 lung) | TGI (MOLT-4 leukemia) | TGI (ACHN renal) | TGI (SNB-75 CNS) | TGI (HOP-62 NSCLC) | TGI (LOX IMVI melanoma) | TGI (SN12C renal) | TGI (U251 CNS) | GI50 (NCI-H460 lung) | GI50 (ACHN renal) | GI50 (U251 CNS) | GI50 (MCF7 breast) [µM] | TGI (MCF7 breast) [µM] | GI50 (MOLT-4 leukemia) [µM] | GI50 (HOP-62 NSCLC) [µM] | GI50 (LOX IMVI melanoma) [µM] | GI50 (SN12C renal) [µM] | GI50 (SNB-75 CNS) [µM] | GI50 (NCI/ADR-RES ovarian) [µM] | TGI (NCI/ADR-RES ovarian) [µM]
N#CCc1ccc(/C(C#N)=C2/OC(=N)C(c3ccc(CC#N)cc3)C2=O)cc1 (configuration not stated) | > 100 µM | > 100 µM | > 100 µM | > 100 µM | > 100 µM | > 100 µM | > 100 µM | – | – | – | – | – | – | – | – | – | – | – | – | –
O=C1CCCC(=O)C1=C(O)CCCCCCCCCCc1ccccc1 | > 100 µM | > 100 µM | > 100 µM | 95.4 µM | > 100 µM | > 100 µM | > 100 µM | > 100 µM | – | – | – | – | – | – | – | – | – | – | – | –
COC(=O)c1c(C)cc2c(c1O)C1(O)C(=O)c3cc4c(c(O)c3C(=O)C1(OC)C(O)C2)C(=O)C=C(NC1OC(C)C(OC)C(O)C1OC)C4=O (configuration not stated) | 0.435 µM | 0.13 µM | 0.205 µM | 0.277 µM | 1.26 µM | 0.0866 µM | 0.243 µM | 0.663 µM | – | – | – | – | – | – | – | – | – | – | – | –
Cc1ccc(-c2nc3c(C(=O)NCCN(C)C)cccc3[nH]2)cc1 | 21.1 µM | 18.5 µM | 28.9 µM | 52.4 µM | 36.1 µM | 24.6 µM | 63.5 µM | 61.1 µM | – | – | – | – | – | – | – | – | – | – | – | –
Cc1ccc(NC(=O)COC(=O)c2cccc3c(=O)c4ccccc4[nH]c23)cc1 | > 100 µM | > 100 µM | > 100 µM | 94.9 µM | > 100 µM | 60 µM | > 100 µM | > 100 µM | – | – | – | – | – | – | – | – | – | – | – | –
S=P1(c2ccccc2)Nc2ccc(Cl)cc2N1 (configuration not stated) | > 100 µM | > 100 µM | > 100 µM | – | > 100 µM | > 100 µM | – | > 100 µM | – | – | – | – | – | – | – | – | – | – | – | –
C/C=C(\CCC1NCCc2c1[nH]c1ccccc21)[Si](C)(C)C (configuration not stated) | 10.9 µM and 3.78 µM | 13.8 µM and 8.98 µM | 25 µM and 8.04 µM | 14.8 µM and 16.7 µM | 28.1 µM and 24.5 µM | 38.5 µM and 4.84 µM | 11.8 µM and 10.4 µM | 10.5 µM and 3.27 µM | 5.56 µM and 1.92 µM | 11.4 µM and 2.79 µM | 5.79 µM and 1.8 µM | – | – | – | – | – | – | – | – | –
Cc1ccc(NC(=O)C(=O)C2NC(=S)NC2=O)c([N+](=O)[O-])c1 (configuration not stated) | > 100 µM | > 100 µM | > 100 µM | > 100 µM | > 100 µM | > 100 µM | > 100 µM | > 100 µM | – | – | – | – | – | – | – | – | – | – | – | –
O=C1Cc2ccccc2N1c1c(Cl)cccc1Cl | > 100 µM | 98.1 µM | > 100 µM | > 100 µM | > 100 µM | > 100 µM | > 100 µM | > 100 µM | – | – | – | – | – | – | – | – | – | – | – | –
COc1ccc(/C(=N\O)c2cc(OC)c(OC)c(OC)c2)c(OC)c1N | > 100 µM | > 100 µM | > 100 µM | – | > 100 µM | > 100 µM | > 100 µM | > 100 µM | 3.59 µM | 7.68 µM | 5.17 µM | 2.46 | > 100 | 3.95 | 4.26 | 5.38 | 7.9 | – | – | –
CC1C=CC(C)C2(O)C(=O)NC(O)C12 (configuration not stated) | > 100 µM | > 100 µM | > 100 µM | > 100 µM | > 100 µM | – | > 100 µM | > 100 µM | – | – | – | – | – | – | – | – | – | – | – | –
N#CCCN(CCC#N)c1ccc(/C=N\c2nc(-c3ccccc3)cs2)cc1 | > 100 µM | > 100 µM | > 100 µM | > 100 µM | > 100 µM | > 100 µM | > 100 µM | – | – | – | – | – | – | – | – | – | – | – | – | –
CCC[CH2][Sn]1([CH2]CCC)[O]C(=O)c2cccc(OC)c2[O]1 | 2.9 µM | 1.36 µM | 0.753 µM | 1.26 µM | 3.75 µM | 0.442 µM | 1.71 µM | 0.751 µM | 1.38 µM | 0.271 µM | 0.237 µM | – | – | 0.217 | 2.27 | 0.161 | 0.47 | 0.112 | – | –
CCCCCCCCCCCCSC(=NC)NC | 3.52 µM | 5.05 µM | 3.35 µM | 3.55 µM | 4.59 µM | – | 7.69 µM | – | 1.84 µM | 1.73 µM | – | – | – | 2.01 | 1.94 | – | 2.67 | 1.78 | 2.06 | 4.53
CCN(CC)CCC(=O)N1CCc2c([nH]c3ccccc23)C1c1cccnc1 (configuration not stated) | > 100 µM | > 100 µM | > 100 µM | > 100 µM | > 100 µM | > 100 µM | > 100 µM | > 100 µM | – | – | – | – | – | – | – | – | – | – | – | –
C[N+](C)(C)Cc1c(CC#N)[nH]c2ccccc12 | > 100 µM | > 100 µM | > 100 µM | > 100 µM | > 100 µM | > 100 µM | > 100 µM | > 100 µM | – | – | – | – | – | – | – | – | – | – | – | –
COc1ccc(CC2NCCc3cc(OC)c(OC)cc32)cc1 (configuration not stated) | > 100 µM | > 100 µM | > 100 µM | > 100 µM | > 100 µM | > 100 µM | > 100 µM | > 100 µM | – | – | – | – | – | – | – | – | – | – | – | –
CCOC(=O)N[C@H]1CCc2cc(O)c(OC)c(OC)c2-c2ccc(SC)c(=O)cc21 | 3.58 µM | > 100 µM | > 100 µM | – | > 100 µM | > 100 µM | > 58.9 µM | > 6.92 µM | – | – | – | – | – | – | – | – | – | – | – | –
COc1cc(C(=O)/C=C/c2c(-c3ccc(F)cc3)nc3ncccn23)cc(OC)c1OC | – | > 100 µM | 6.45 µM | 9.37 µM | 24.5 µM | – | 36.1 µM | 12.9 µM | – | 2.21 µM | 1.68 µM | 1.61 | 15.6 | 3.75 | 3.12 | – | 2.26 | 2.39 | 1.58 | 5.11
Cn1cnc([N+](=O)[O-])c1Sc1nc2cccnc2s1 | > 100 µM | 23.6 µM | 80.6 µM | 65.8 µM | > 100 µM | 60.5 µM | 33.5 µM | 65.8 µM | – | – | – | – | – | – | – | – | – | – | – | –
O=C1c2cccc3cccc(c23)C(=O)N1CCCCN1CCN(CCCCOc2ccc(-c3nc4ccc(N5CCOCC5)cc4[nH]3)cc2)CC1 | > 100 µM | > 100 µM | > 100 µM | > 100 µM | > 100 µM | > 100 µM | – | > 100 µM | > 100 µM | 3.19 µM | 7.93 µM | > 100 | > 100 | 3.76 | > 100 | 9.78 | – | > 100 | > 100 | > 100
CC1CC(=O)C(CC(=O)O)C1C(C(=O)C(=O)Nc1c(C#N)cccc1[N+](=O)[O-])[N+](=O)[O-] (configuration not stated) | > 100 µM | > 100 µM | > 100 µM | > 100 µM | > 100 µM | > 100 µM | – | > 100 µM | – | – | – | – | – | – | – | – | – | – | – | –

Reference: PubChem BioAssay (NCI)
